Reference: article PMC2949283 (The Biochemical journal, 2009)
Where two headings read alike, the source gives them in different places.

Legend:
Type in all cases: biochemical
[1] = biological target: Y133A HuAChE (Homo sapiens, UniProt P22303, Y164A); test: HuAChE inhibition kinetics; conditions: read-out: Kd, Michaelis complex (Eq. 1); Y133A HuAChE; NI = No inhibition between […]10^−6- […]10^−4M
[2] = biological target: F295A HuAChE (Homo sapiens, UniProt P22303, F326A); test: HuAChE inhibition kinetics
[3] = biological target: W86A/Y337A HuAChE (Homo sapiens, UniProt P22303, W117A/Y368A); test: biochemical
[4] = biological target: Y337A HuAChE (Homo sapiens, UniProt P22303, Y368A); test: HuAChE inhibition kinetics
[5] = biological target: F297A HuAChE (Homo sapiens, UniProt P22303, F328A); test: HuAChE inhibition kinetics
[6] = biological target: F338A HuAChE (Homo sapiens, UniProt P22303, F369A); test: HuAChE inhibition kinetics
[7] = biological target: F295A/F297A HuAChE (Homo sapiens, UniProt P22303, F326A/F328A); test: HuAChE inhibition kinetics
[8] = biological target: W86A HuAChE (Homo sapiens, UniProt P22303, W117A); test: HuAChE inhibition kinetics
[9] = biological target: Wild Type HuAChE (Homo sapiens, UniProt P22303); test: HuAChE inhibition kinetics
[10] = biological target: HuBChE-Wild Type (Homo sapiens, UniProt P06276); test: HuBChE inhibition kinetics
HuBChE-Wild Type, sequence (P06276 29-602): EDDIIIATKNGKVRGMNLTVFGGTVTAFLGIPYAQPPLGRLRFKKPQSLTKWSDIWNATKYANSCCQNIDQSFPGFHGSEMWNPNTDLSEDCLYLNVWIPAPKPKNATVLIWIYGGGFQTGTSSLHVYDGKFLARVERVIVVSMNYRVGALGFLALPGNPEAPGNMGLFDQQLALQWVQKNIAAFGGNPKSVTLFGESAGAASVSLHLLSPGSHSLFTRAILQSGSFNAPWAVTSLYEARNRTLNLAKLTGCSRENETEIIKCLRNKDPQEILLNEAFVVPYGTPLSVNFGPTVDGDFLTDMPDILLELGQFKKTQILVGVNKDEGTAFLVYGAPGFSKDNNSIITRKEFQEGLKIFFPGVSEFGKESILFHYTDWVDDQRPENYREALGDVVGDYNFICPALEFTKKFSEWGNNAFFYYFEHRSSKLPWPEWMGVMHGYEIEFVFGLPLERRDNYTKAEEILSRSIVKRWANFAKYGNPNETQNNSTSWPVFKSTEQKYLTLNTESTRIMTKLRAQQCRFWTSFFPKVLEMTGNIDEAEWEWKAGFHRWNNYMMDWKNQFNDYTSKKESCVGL

Wild Type HuAChE, sequence (P22303 32-614): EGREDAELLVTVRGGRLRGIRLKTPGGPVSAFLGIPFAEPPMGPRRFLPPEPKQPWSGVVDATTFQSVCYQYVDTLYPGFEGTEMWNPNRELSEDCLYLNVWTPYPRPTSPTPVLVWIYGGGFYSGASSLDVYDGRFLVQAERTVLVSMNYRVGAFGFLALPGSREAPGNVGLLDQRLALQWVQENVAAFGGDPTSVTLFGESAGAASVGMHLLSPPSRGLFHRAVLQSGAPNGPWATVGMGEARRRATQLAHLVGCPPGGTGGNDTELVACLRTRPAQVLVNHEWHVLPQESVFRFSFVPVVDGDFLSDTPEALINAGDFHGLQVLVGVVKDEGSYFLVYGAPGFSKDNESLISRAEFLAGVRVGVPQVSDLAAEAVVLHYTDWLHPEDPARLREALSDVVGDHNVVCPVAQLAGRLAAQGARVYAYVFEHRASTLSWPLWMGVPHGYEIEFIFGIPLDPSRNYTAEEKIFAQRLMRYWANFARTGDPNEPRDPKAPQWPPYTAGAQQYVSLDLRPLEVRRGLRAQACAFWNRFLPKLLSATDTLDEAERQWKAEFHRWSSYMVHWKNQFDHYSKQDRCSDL
W86A HuAChE, sequence (P22303 32-614 W117A): as the sequence (P22303 32-614) above, with W86A counted along it
Y337A HuAChE, sequence (P22303 32-614 Y368A): as the sequence (P22303 32-614) above, with Y337A counted along it
Y133A HuAChE, sequence (P22303 32-614 Y164A): as the sequence (P22303 32-614) above, with Y133A counted along it
W86A/Y337A HuAChE, sequence (P22303 32-614 W117A/Y368A): as the sequence (P22303 32-614) above, with W86A, Y337A counted along it
F338A HuAChE, sequence (P22303 32-614 F369A): as the sequence (P22303 32-614) above, with F338A counted along it
F295A HuAChE, sequence (P22303 32-614 F326A): as the sequence (P22303 32-614) above, with F295A counted along it
F295A/F297A HuAChE, sequence (P22303 32-614 F326A/F328A): as the sequence (P22303 32-614) above, with F295A, F297A counted along it
F297A HuAChE, sequence (P22303 32-614 F328A): as the sequence (P22303 32-614) above, with F297A counted along it

CNC(=O)Oc1ccc2c(c1)[C@]1(C)CCO[C@@H]1N2C [(−)-Physovenine, physovenine]
Kd [1]: > 250000 nM | Kd [2]: 100 ± 27 nM | Kd [3]: 413000 ± 85000 nM | Kd [4]: 850 ± 200 nM | Kd [5]: 630 ± 40 nM | Kd [6]: 2560 ± 600 nM | Kd ([7]; Kd, Michaelis complex (Eq. 1)): 230 ± 70 nM | Kd [8]: 120000 ± 24000 nM | Kd [9]: 430 ± 90 nM

CC(C)c1ccc(NC(=O)Oc2ccc3c(c2)[C@]2(C)CCN(C)[C@@H]2N3C)cc1 [(−)Cymserine, cymserine]
mode of inhibition ([9]; HuAChE enzymes): noncovalent inhibitor

CCN(C)C(=O)Oc1cccc([C@H](C)N(C)C)c1 [Rivastigmine, rivastigmine]
k2 higher than for HuAChE ([10]; HuBChE vs HuAChE): 9 fold | reactivity toward HuBChE higher than toward HuAChE ([10]; HuBChE vs HuAChE): 15 fold | k2, carbamylation rate constant ([10]; HuBChE-Wild Type): 0.90 ± 0.03 min⁻¹

physovenine [(+)-Physovenine]
Kd [1]: > 250000 nM | Kd ([2]; read-out: Kd, Michaelis complex (Eq. 1), F295A HuAChE): 90 ± 25 nM | Kd ([3]; read-out: Kd, Michaelis complex (Eq. 1), […], Table 3: Activity measured with TB): 281000 ± 45000 nM | Kd ([4]; read-out: Kd, Michaelis complex (Eq. 1), Y337A HuAChE): 15000 ± 1600 nM | Kd ([5]; read-out: Kd, Michaelis complex (Eq. 1), F297A HuAChE): 1000 ± 350 nM | Kd ([6]; read-out: Kd, Michaelis complex (Eq. 1), F338A HuAChE): 700 ± 100 nM | Kd ([7]; read-out: Kd, Michaelis complex (Eq. 1)): 280 ± 80 nM | Kd ([8]; read-out: Kd, Michaelis complex (Eq. 1), W86A HuAChE): 280000 ± 28500 nM | Kd ([9]; read-out: Kd, Michaelis complex (Eq. 1), Wild Type HuAChE): 1400 ± 130 nM
